Data as given in patent US9079929B2, “Substituted tetrahydroisoquinoline compounds as factor XIa inhibitors” (priority 2011, dated 2015).
Structures can show the parent of a compound that is named as a salt.

Molecular target: human Factor XIa (Homo sapiens (Human), UniProt P03951)
Experiment: Factor XIa enzyme inhibition assay (chromogenic substrate S-2366)
Format: biochemical
Details: purified human Factor XIa, substrate S-2366, pH 7.4
Method: The results of this assay are expressed as the inhibitory constant, Ki.
Values of Ki were determined by allowing the protease to react with the substrate in the presence of the inhibitor. Reactions were allowed to go for periods of 20-180 minutes (depending on the protease) and the velocities (rate of absorbance or fluorescence change versus time) were measured. The following relationships were used to calculate Ki values:
vs/vo=A+((B−A)/1+((IC50/(I)n))); and […]

Sequence of human Factor XIa (P03951 whole entry, looked up): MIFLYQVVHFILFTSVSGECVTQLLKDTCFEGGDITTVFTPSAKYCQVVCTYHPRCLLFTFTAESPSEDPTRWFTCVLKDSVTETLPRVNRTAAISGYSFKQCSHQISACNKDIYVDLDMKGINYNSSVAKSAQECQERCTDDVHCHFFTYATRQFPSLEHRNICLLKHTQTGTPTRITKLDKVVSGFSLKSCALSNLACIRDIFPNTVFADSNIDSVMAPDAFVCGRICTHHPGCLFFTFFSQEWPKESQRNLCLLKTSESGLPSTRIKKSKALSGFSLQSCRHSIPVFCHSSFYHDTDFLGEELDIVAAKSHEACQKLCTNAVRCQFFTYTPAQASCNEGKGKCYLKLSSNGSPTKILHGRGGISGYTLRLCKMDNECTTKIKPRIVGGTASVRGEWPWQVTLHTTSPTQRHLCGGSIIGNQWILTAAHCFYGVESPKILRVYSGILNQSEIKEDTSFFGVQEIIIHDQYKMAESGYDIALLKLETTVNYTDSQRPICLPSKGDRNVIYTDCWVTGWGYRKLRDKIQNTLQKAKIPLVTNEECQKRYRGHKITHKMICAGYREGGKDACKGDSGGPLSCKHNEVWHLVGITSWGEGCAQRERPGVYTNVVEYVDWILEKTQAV
Sequence of human Factor XIa (P03951 whole entry partner, looked up): as the sequence (P03951 whole entry, looked up) above

## CCOC(=O)c1ccc(NC(=O)[C@H]2c3cccc(OCCC4CCNCC4)c3CCN2C(=O)/C=C/c2c(-n3cnnn3)ccc(Cl)c2F)cc1 [Example 160, (R,E)-ethyl 4-(2-(3-(3-chloro-2-fluoro-6-(1H-tetrazol-1-yl)phenyl)-acryloyl)-5-(2-(piperidin-4-yl)ethoxy)-1,2,3,4-tetrahydroisoquinoline-1-carboxamido)benzoate, TFA salt]
  Ki: 3530 nM

## O=C(O)c1ccc(NC(=O)C2c3cccc(C(=O)N4CCNCC4)c3CCN2C(=O)/C=C/c2c(-n3cnnn3)ccc(Cl)c2F)cc1 (stereo not drawn) [Example 29]
  Ki: 553 nM

## COc1ccc(-c2cccc3c2CCN(C(=O)/C=C/c2c(-n4cnnn4)ccc(Cl)c2F)C3C(=O)Nc2ccc(C(=O)O)cc2)c(Cl)c1 (stereo not drawn) [Example 47, (E)-4-(2-(3-(3-chloro-2-fluoro-6-(1H-tetrazol-1-yl)phenyl)acryloyl)-5-(2-chloro-4-methoxyphenyl)-1,2,3,4-tetrahydroisoquinoline-1-carboxamido)benzoic acid]
  Ki: < 5 nM

## CNC(=O)c1ccc(-c2cccc3c2CCN(C(=O)/C=C/c2c(-n4cnnn4)ccc(Cl)c2F)C3C(=O)Nc2ccc3c(c2)CN=N3)cc1 (stereo not drawn) [Example 80]
  Ki: 20.1 nM

## COC(=O)Nc1ccc(-c2cccc3c2CCN(C(=O)/C=C/c2c(-n4cnnn4)ccc(Cl)c2F)[C@H]3C(=O)Nc2ccc(F)cc2)cc1 [Example 50, (R,E)-Methyl 4-(2-(3-(3-chloro-2-fluoro-6-(1H-tetrazol-1-yl)phenyl)acryloyl)-1-(4-fluorophenylcarbamoyl)-1,2,3,4-tetrahydroisoquinolin-5-yl)phenylcarbamate]
  Ki: 3370 nM

## O=C(O)c1ccc(NC(=O)C2c3cccc(OC4CCNCC4)c3CCN2C(=O)/C=C/c2c(-n3cnnn3)ccc(Cl)c2F)cc1 (stereo not drawn) [Example 108, (E)-4-(2-(3-(3-Chloro-2-fluoro-6-(1H-tetrazol-1-yl)phenyl)acryloyl)-5-(piperidin-4-yloxy)-1,2,3,4-tetrahydroisoquinoline-1-carboxamido)benzoic acid, TFA salt]
  Ki: < 5 nM

## CNC(=O)c1ccc(-c2cccc3c2CCN(C(=O)/C=C/c2c(-n4cnnn4)ccc(Cl)c2F)C3C(=O)NCC(=O)OC)cc1 (stereo not drawn) [Example 61]
  Ki: 342 nM

## CCOC(=O)[C@H]1CCCN(C(=O)c2cccc3c2CCN(C(=O)/C=C/c2c(-n4cnnn4)ccc(Cl)c2F)C3C(=O)Nc2ccc(NC(=O)OC)cc2)C1 (stereo partly drawn) [Example 16]
  Ki: 332 nM

## Cn1nccc1-c1cccc2c1CCN(C(=O)/C=C/c1c(-n3cnnn3)ccc(Cl)c1F)C2C(=O)Nc1ccc(C(=O)O)cc1 (stereo not drawn) [Example 173, (E)-4-(2-(3-(3-Chloro-2-fluoro-6-(1H-tetrazol-1-yl)phenyl)acryloyl)-5-(1-methyl-1H-pyrazol-5-yl)-1,2,3,4-tetrahydroisoquinoline-1-carboxamido)benzoic acid]
  Ki: < 5 nM

## CNC(=O)c1ccc(-c2cccc3c2CCN(C(=O)/C=C/c2c(-n4cnnn4)ccc(Cl)c2F)C3C(=O)NCc2nccn2C)cc1 (stereo not drawn) [Example 66]
  Ki: 534 nM

## CC(C)(C)OC(=O)c1ccc(NC(=O)C2c3cccc(C(=O)N4CCN(C(=O)OC(C)(C)C)CC4)c3CCN2C(=O)/C=C/c2c(-n3cnnn3)ccc(Cl)c2F)cc1 (stereo not drawn) [Example 24]
  Ki: 170 nM

## CC(=O)c1ccc(Cl)c(F)c1/C=C/C(=O)N1CCc2c(-c3ccc(C(=O)NCCN(C)C)cc3)cccc2[C@@H]1C(=O)Nc1ccc(C(=O)O)cc1 [Example 150, (R,E)-4-(2-(3-(6-Acetyl-3-chloro-2-fluorophenyl)acryloyl)-5-(4-(2-(dimethylamino)ethylcarbamoyl)phenyl)-1,2,3,4-tetrahydroisoquinoline-1-carboxamido)benzoic acid, TFA salt]
  Ki: 37 nM

## CN(C)CCOc1cccc2c1CCN(C(=O)/C=C/c1c(-n3cnnn3)ccc(Cl)c1F)C2C(=O)Nc1ccc(C(=O)O)cc1 (stereo not drawn) [Example 132, (E)-4-(2-(3-(3-chloro-2-fluoro-6-(1H-tetrazol-1-yl)phenyl)acryloyl)-5-(2-(dimethylamino)ethoxy)-1,2,3,4-tetrahydroisoquinoline-1-carboxamido)benzoic acid, TFA salt]
  Ki: < 5 nM

## O=C(O)c1ccc(NC(=O)C2c3cccc(C(=O)N4CCNCC4)c3CCN2C(=O)/C=C/c2c(-n3cnnn3)ccc(Cl)c2F)cc1 (stereo not drawn) [Example 30]
  Ki: < 5 nM

## CC[C@H](C)NC(=O)C1c2cccc(-c3ccc(C(=O)NC)cc3)c2CCN1C(=O)/C=C/c1c(-n2cnnn2)ccc(Cl)c1F (stereo partly drawn) [Example 65]
  Ki: 49.2 nM

## CN(C)CCNC(=O)c1ccc(-c2cccc3c2CCN(C(=O)/C=C/c2c(-n4cnnn4)ccc(Cl)c2F)C3C(=O)Nc2ccc(C(=O)OC(C)(C)C)cc2)cc1 (stereo not drawn) [Example 89]
  Ki: < 5 nM

## CCOC(=O)c1ccc(NC(=O)C2c3cccc(-c4ccc(C(=O)NC)nc4)c3CCN2C(=O)/C=C/c2c(-n3cnnn3)ccc(Cl)c2F)cc1 (stereo not drawn) [Example 188]
  Ki: 3860 nM

## CN(C)CCNC(=O)c1ccc(-c2cccc3c2CCN(C(=O)/C=C/c2c(-n4cnnn4)ccc(Cl)c2F)[C@H]3C(=O)Nc2ccc(C(=O)OCCN(C)C)cc2)cc1 [Example 93, (R,E)-2-(dimethylamino)ethyl 4-(2-(3-(3-chloro-2-fluoro-6-(1H-tetrazol-1-yl)phenyl)acryloyl)-5-(4-((2-(dimethylamino)ethyl)carbamoyl)phenyl)-1,2,3,4-tetrahydroisoquinoline-1-carboxamido)benzoate; bis-TFA salt]
  Ki: 951 nM

## CN(C)CCNC(=O)c1ccc(-c2cccc3c2CCN(C(=O)/C=C/c2c(-n4cnnn4)ccc(Cl)c2F)[C@H]3C(=O)Nc2ccc(C(=O)OCc3ccccn3)cc2)cc1 [Example 98]
  Ki: 132 nM

## CNC(=O)c1ccc(-c2cccc3c2CCN(C(=O)/C=C/c2c(-n4cnnn4)ccc(Cl)c2F)C3C(=O)Nc2ccc(C(=O)O)cc2)cn1 (stereo not drawn) [Example 78]
  Ki: < 5 nM

## CC(=O)c1ccc(Cl)c(F)c1/C=C/C(=O)N1CCc2c(-c3ccc(C(N)=O)cc3)cccc2[C@@H]1C(=O)Nc1ccc(C(=O)O)cc1 [Example 120]
  Ki: 291 nM

## CC(=O)c1ccc(Cl)c(F)c1/C=C/C(=O)N1CCc2c(O)cccc2C1C(=O)Nc1ccc(C(=O)O)cc1 (stereo not drawn) [Example 146, (E)-4-(2-(3-(6-acetyl-3-chloro-2-fluorophenyl)acryloyl)-5-hydroxy-1,2,3,4-tetrahydroisoquinoline-1-carboxamido)benzoic acid]
  Ki: 24.8 nM

## COCCNC(=O)c1cccc2c1CCN(C(=O)/C=C/c1cc(Cl)ccc1-n1cnnn1)C2C(=O)Nc1ccc(C(=O)O)cc1 (stereo not drawn) [Example 3, (E)-4-(2-(3-(5-Chloro-2-(1H-tetrazol-1-yl)phenyl)acryloyl)-5-(2-methoxyethylcarbamoyl)-1,2,3,4-tetrahydroisoquinoline-1-carboxamido)benzoic acid]
  Ki: 21.3 nM

## CS(=O)(=O)Nc1cccc2c1CCN(C(=O)/C=C/c1c(-n3cnnn3)ccc(Cl)c1F)C2C(=O)Nc1ccc(C(=O)O)cc1 (stereo not drawn) [Example 9, (E)-4-(2-(3-(3-chloro-2-fluoro-6-(1H-tetrazol-1-yl)phenyl)acryloyl)-5-(methylsulfonamido)-1,2,3,4-tetrahydroisoquinoline-1-carboxamido)benzoic acid]
  Ki: < 5 nM

## CN(C)c1ccc(-c2cccc3c2CCN(C(=O)/C=C/c2c(-n4cnnn4)ccc(Cl)c2F)C3C(=O)Nc2ccc(C(=O)O)cc2)cn1 (stereo not drawn) [Example 191]
  Ki: < 5 nM

## CCOC(=O)CCCNC(=O)c1cccc2c1CCN(C(=O)/C=C/c1c(-n3cnnn3)ccc(Cl)c1F)C2C(=O)Nc1ccc(F)cc1 (stereo not drawn) [Example 14]
  Ki: 580 nM

## CCOC(=O)c1ccc(NC(=O)C2c3cccc(OCCC4CCN(C)CC4)c3CC(C)(C)N2C(=O)/C=C/c2c(-n3cnnn3)ccc(Cl)c2F)cc1 (stereo not drawn) [Example 152, (E)-ethyl 4-(2-(3-(3-chloro-2-fluoro-6-(1H-tetrazol-1-yl)phenyl)acryloyl)-3,3-dimethyl-5-(2-(1-methylpiperidin-4-yl)ethoxy)-1,2,3,4-tetrahydroisoquinoline-1-carboxamido)benzoate, TFA salt]
  Ki: 100 nM
